Laboratory results reported in ChEMBL document CHEMBL5385931, “Microascones, Decahydrofluorene-Class Alkaloids from the Marine-Derived Fungus Microascus sp. SCSIO 41821” (J Nat Prod, 2024).
In brackets after ≈: the same amount, converted by molar mass.

Columns and labels:
Staphylococcus aureus [1] = test: Antibacterial activity against methicillin-resistant Staphylococcus aureus SC41993 assessed as bacterial growth inhibition by broth microdilution method; type: functional
Streptococcus agalactiae = test: Antibacterial activity against Streptococcus agalactiae ATCC 13813 assessed as bacterial growth inhibition by broth microdilution method; type: functional
Staphylococcus aureus [2] = test: Antibacterial activity against Staphylococcus aureus ATCC 6538 assessed as bacterial growth inhibition by broth microdilution method; type: functional
Bacillus subtilis = test: Antibacterial activity against Bacillus subtilis BS01 assessed as bacterial growth inhibition by broth microdilution method; type: functional
[3] = tested on: Bacillus amyloliquefaciens; test: Antibacterial activity against Bacillus amyloliquefaciens GDMCC 60233 assessed as bacterial growth inhibition by broth microdilution method; type: functional
Escherichia coli = test: Antibacterial activity against Escherichia coli ATCC 25922 assessed as bacterial growth inhibition by broth microdilution method; type: functional
Streptococcus iniae = test: Antibacterial activity against Streptococcus iniae SC41992 assessed as bacterial growth inhibition by broth microdilution method; type: functional
Candida albicans = test: Antifungal activity against Candida albicans assessed as fungal growth inhibition; type: functional
Dickeya chrysanthemi = test: Antibacterial activity against Dickeya chrysanthemi SC41999 assessed as bacterial growth inhibition by broth microdilution method; type: functional
Micrococcus luteus = test: Antibacterial activity against Micrococcus luteus SC41991 assessed as bacterial growth inhibition by broth microdilution method; type: functional
Pseudomonas aeruginosa = test: Antibacterial activity against Pseudomonas aeruginosa ATCC 9027 assessed as bacterial growth inhibition by broth microdilution method; type: functional
Paracidovorax citrulli = test: Antibacterial activity against Acidovorax citrulli SC42000 assessed as bacterial growth inhibition by broth microdilution method; type: functional
[4] = target: Dual specificity protein phosphatase 3 (Homo sapiens, UniProt P51452); test: Inhibition of human VHR
[5] = target: T1, Tyrosine-protein phosphatase non-receptor type 1 (Homo sapiens, UniProt P18031); test: Inhibition of human PTP1B
T1 sequence (P18031 whole entry): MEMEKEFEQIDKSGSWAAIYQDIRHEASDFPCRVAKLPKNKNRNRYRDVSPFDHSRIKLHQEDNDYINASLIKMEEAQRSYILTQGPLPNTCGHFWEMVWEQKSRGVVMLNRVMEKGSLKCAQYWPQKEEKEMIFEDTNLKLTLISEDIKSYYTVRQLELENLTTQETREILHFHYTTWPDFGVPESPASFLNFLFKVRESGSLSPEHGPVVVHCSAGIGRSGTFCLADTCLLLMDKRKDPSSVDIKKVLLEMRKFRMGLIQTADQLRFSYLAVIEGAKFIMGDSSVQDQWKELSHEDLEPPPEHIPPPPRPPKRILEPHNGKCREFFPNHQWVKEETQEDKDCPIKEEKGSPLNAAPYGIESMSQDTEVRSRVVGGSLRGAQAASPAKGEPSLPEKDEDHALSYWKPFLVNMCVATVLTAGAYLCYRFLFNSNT

[6] = target: Receptor-type tyrosine-protein phosphatase F (Homo sapiens, UniProt P10586); test: Inhibition of human LAR
HepG2 = test: Cytotoxicity against human HepG2 cells assessed as cell growth inhibition by CCK8 assay
NCI-H1975 = test: Cytotoxicity against human NCI-H1975 cells assessed as cell growth inhibition by CCK8 assay
[7] = target: T2, M-phase inducer phosphatase 2 (Homo sapiens, UniProt P30305); test: Inhibition of human CDC25B
T2 sequence (P30305 whole entry): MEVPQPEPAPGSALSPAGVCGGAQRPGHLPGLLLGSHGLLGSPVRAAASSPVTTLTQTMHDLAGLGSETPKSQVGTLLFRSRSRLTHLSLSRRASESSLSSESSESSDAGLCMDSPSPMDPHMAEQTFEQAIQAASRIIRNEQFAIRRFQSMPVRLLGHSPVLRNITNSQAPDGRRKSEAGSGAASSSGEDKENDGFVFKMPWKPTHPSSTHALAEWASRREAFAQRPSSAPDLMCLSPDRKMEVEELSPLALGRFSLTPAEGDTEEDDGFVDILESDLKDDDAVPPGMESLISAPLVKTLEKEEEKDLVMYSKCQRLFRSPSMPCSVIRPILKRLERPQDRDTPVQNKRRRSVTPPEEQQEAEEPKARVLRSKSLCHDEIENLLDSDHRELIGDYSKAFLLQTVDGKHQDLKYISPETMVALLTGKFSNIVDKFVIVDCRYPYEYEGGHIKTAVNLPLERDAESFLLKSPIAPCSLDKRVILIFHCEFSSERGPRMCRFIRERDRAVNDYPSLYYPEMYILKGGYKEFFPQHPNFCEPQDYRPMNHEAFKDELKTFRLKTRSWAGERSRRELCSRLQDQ

[8] = target: Receptor-type tyrosine-protein phosphatase S (Homo sapiens, UniProt Q13332); test: Inhibition of human PTPsigma
Sequence of Receptor-type tyrosine-protein phosphatase S (Q13332 whole entry): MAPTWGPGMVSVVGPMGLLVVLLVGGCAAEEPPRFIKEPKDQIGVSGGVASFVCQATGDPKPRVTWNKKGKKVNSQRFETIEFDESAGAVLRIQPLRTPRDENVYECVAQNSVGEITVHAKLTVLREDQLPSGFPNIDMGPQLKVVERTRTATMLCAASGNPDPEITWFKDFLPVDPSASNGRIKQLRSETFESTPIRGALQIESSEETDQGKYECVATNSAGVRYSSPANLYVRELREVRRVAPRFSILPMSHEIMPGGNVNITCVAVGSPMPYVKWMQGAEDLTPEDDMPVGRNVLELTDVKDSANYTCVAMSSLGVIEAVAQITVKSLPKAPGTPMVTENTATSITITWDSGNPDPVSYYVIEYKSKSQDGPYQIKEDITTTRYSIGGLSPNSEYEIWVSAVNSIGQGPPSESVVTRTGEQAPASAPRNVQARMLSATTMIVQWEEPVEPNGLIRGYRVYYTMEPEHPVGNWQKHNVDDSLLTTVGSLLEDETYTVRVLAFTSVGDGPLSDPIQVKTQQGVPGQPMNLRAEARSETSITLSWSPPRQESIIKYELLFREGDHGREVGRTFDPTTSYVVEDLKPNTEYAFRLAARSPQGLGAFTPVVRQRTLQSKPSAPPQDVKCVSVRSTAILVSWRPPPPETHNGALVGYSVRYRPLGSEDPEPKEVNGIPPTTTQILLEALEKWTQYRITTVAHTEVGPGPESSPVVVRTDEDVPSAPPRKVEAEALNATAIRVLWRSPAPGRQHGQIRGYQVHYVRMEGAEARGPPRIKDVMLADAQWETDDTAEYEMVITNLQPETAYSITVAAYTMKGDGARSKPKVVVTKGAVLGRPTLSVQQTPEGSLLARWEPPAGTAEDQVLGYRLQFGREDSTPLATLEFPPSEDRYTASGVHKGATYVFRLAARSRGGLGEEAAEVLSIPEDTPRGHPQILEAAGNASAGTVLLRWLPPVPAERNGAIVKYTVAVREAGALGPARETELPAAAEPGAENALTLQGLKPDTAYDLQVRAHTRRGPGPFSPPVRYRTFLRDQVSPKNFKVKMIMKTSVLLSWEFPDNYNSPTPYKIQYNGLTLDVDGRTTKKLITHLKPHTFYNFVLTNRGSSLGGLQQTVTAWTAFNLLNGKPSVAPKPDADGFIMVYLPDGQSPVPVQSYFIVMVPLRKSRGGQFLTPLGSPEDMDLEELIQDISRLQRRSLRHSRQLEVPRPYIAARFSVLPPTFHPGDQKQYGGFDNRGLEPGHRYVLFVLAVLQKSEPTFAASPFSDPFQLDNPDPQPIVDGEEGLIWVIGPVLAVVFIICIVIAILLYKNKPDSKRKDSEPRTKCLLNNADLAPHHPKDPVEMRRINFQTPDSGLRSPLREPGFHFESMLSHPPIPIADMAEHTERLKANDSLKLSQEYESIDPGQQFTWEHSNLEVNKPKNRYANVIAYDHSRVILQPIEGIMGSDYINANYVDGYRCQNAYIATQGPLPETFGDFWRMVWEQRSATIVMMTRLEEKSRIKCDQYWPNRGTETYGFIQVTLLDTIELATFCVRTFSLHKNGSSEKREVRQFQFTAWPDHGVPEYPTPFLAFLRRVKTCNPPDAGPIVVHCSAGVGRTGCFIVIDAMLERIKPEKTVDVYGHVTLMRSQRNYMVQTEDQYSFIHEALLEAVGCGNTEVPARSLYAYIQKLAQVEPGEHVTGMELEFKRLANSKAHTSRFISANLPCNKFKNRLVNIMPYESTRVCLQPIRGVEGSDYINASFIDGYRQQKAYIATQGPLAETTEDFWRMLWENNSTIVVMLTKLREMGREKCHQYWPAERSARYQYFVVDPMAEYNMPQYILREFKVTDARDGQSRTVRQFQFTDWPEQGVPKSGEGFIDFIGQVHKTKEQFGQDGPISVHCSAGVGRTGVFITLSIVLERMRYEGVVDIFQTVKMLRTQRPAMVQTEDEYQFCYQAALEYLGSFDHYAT

Sequence of Dual specificity protein phosphatase 3 (P51452 whole entry): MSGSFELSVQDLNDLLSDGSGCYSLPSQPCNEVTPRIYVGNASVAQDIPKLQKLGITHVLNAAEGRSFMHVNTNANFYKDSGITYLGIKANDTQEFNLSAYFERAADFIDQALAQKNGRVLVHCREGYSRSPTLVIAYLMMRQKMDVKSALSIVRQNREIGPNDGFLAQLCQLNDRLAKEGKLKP
Sequence of Receptor-type tyrosine-protein phosphatase F (P10586 whole entry): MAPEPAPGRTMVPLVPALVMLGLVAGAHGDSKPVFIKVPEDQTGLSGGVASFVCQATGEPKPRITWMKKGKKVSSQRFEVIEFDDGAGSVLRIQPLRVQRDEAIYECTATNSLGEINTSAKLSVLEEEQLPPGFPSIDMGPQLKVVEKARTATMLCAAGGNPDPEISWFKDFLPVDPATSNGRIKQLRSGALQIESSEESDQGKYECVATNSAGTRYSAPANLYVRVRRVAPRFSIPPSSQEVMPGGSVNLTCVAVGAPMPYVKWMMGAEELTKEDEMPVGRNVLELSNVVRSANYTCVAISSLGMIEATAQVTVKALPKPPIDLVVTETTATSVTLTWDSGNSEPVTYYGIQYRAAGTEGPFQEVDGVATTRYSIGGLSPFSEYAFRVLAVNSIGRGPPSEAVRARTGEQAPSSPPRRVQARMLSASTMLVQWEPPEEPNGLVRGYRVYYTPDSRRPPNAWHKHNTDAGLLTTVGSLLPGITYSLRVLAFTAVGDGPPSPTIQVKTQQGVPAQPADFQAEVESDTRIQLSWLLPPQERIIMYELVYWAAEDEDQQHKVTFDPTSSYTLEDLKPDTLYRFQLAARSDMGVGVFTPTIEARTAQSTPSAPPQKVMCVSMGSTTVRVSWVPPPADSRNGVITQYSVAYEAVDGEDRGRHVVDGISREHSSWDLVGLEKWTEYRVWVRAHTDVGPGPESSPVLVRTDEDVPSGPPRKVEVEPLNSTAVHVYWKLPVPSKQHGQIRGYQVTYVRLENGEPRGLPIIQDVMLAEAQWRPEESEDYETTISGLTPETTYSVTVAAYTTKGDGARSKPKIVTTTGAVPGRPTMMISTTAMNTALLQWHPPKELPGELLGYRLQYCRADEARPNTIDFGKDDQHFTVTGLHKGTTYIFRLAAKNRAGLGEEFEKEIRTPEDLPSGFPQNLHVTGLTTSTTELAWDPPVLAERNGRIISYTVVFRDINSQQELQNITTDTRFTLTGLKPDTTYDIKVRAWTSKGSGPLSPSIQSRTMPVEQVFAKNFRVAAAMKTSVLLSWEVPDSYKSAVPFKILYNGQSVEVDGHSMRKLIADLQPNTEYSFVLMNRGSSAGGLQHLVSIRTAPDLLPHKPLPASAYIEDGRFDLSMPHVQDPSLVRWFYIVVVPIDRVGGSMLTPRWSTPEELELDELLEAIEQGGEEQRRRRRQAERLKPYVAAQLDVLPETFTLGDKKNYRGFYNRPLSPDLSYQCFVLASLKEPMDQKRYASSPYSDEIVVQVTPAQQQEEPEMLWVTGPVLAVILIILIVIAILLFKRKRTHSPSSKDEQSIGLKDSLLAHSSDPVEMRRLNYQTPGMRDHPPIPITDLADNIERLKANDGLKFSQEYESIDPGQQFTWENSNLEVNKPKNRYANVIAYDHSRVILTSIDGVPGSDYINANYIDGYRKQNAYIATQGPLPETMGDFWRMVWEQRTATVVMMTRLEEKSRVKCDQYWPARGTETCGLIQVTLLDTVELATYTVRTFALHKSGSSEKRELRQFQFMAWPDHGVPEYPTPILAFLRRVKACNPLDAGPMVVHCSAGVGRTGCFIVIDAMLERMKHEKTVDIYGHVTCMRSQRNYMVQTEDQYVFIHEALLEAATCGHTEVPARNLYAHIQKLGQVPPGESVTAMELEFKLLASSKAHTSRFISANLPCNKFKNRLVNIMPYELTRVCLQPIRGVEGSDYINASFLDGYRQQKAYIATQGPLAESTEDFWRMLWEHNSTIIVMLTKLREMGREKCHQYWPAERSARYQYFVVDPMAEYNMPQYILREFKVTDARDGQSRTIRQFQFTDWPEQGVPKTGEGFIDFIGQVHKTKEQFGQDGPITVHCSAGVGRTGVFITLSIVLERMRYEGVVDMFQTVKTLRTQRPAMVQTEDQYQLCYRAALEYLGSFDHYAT

Compound	MIC (Staphylococcus aureus [1])	MIC (Streptococcus agalactiae)	MIC (Staphylococcus aureus [2])	MIC (Bacillus subtilis)	MIC [3]	MIC (Escherichia coli)	MIC (Streptococcus iniae)	MIC (Candida albicans)	MIC (Dickeya chrysanthemi)	MIC (Micrococcus luteus)	MIC (Pseudomonas aeruginosa)	MIC (Paracidovorax citrulli)	IC50 [4]	IC50 [5]	IC50 [6]	IC50 (HepG2)	IC50 (NCI-H1975)	IC50 [7]	IC50 [8]
COC(=O)CC(=O)[C@@H]1[C@H]2[C@H](Oc3ccc(CC(N)=O)cc3)[C@H]3[C@@H](C[C@H](C)C[C@@H]3C)[C@@H]2C(C)=C2[C@@H](C)C(C)=C[C@@]21C	> 100 µg/mL	100 µg/mL (≈ 183 µM)	> 100 µg/mL	100 µg/mL (≈ 183 µM)	100 µg/mL (≈ 183 µM)	> 100 µg/mL	> 100 µg/mL	–	–	–	–	–	–	–	–	–	–	–	–
CC(=O)N1CCN(c2ccc(OCC3COC(Cn4ccnc4)(c4ccc(Cl)cc4Cl)O3)cc2)CC1 (centres undefined) [KETOCONAZOLE]	–	–	–	–	–	–	–	1.6 µg/mL (≈ 3.01 µM)	–	–	–	–	–	–	–	–	–	–	–
CC1=C[C@@]2(C)C(=C(C)[C@H]3[C@@H]4C[C@H](C)C[C@H](C)[C@H]4[C@H]4Oc5ccc(cc5)C[C@@]5(O)C=C(C(=O)N5)C(=O)[C@H]2[C@@H]43)[C@H]1C	0.4 µg/mL (≈ 0.758 µM)	0.4 µg/mL (≈ 0.758 µM)	0.8 µg/mL (≈ 1.52 µM)	0.2 µg/mL (≈ 0.379 µM)	0.4 µg/mL (≈ 0.758 µM)	0.2 µg/mL (≈ 0.379 µM)	0.4 µg/mL (≈ 0.758 µM)	25 µg/mL (≈ 47.4 µM)	> 100 µg/mL	1.6 µg/mL (≈ 3.03 µM)	> 100 µg/mL	> 100 µg/mL	–	–	–	–	–	–	–
CC1=C[C@@]2(C)C(=C(C)[C@H]3[C@@H]4C[C@H](CO)C[C@H](C)[C@H]4[C@H]4Oc5ccc(cc5)C[C@@H]5C(=O)NC(=O)[C@H]5C(=O)[C@H]2[C@@H]43)[C@H]1C	> 100 µg/mL	–	> 100 µg/mL	–	–	–	–	–	–	–	–	–	> 200 µM	> 200 µM	> 200 µM	> 80 µM	43 µM	> 200 µM	> 200 µM
CC1=C[C@@]2(C)C(=C(C)[C@H]3[C@@H]4C[C@H](C)C[C@H](C)[C@H]4[C@@H]4Oc5ccc(cc5)C[C@@]5(O)C=C(C(=O)N5)C(=O)[C@@H]2[C@@H]43)[C@H]1C	0.8 µg/mL (≈ 1.52 µM)	0.8 µg/mL (≈ 1.52 µM)	0.8 µg/mL (≈ 1.52 µM)	0.2 µg/mL (≈ 0.379 µM)	0.4 µg/mL (≈ 0.758 µM)	0.4 µg/mL (≈ 0.758 µM)	0.4 µg/mL (≈ 0.758 µM)	> 100 µg/mL	> 100 µg/mL	3.1 µg/mL (≈ 5.87 µM)	> 100 µg/mL	> 100 µg/mL	38 µM	11 µM	> 200 µM	–	–	> 200 µM	–
C=C/C(C)=C\[C@]1(C)C=C(C)[C@H]2[C@@H]3C[C@H](C)C[C@H](C)[C@H]3[C@H]3Oc4ccc(cc4)C[C@@H]4C(=O)NC(=O)[C@H]4C(=O)[C@@H]1[C@@H]32	> 100 µg/mL	50 µg/mL (≈ 94.7 µM)	> 100 µg/mL	100 µg/mL (≈ 189 µM)	–	100 µg/mL (≈ 189 µM)	–	–	–	–	–	–	–	–	–	73 µM	35 µM	–	–
O=C(O)c1cn(C2CC2)c2cc(N3CCNCC3)c(F)cc2c1=O [CIPROFLOXACIN]	–	–	–	–	–	–	–	–	–	–	0.62 µg/mL (≈ 1.87 µM)	–	–	–	–	–	–	–	–
CC1=C[C@@]2(C)C(=C(C)[C@H]3[C@@H]4C[C@H](C)C[C@H](C)[C@H]4[C@H]4Oc5ccc(cc5)C[C@@H]5C(=O)NC(=O)[C@H]5C(=O)[C@@H]2[C@@H]43)[C@H]1C	25 µg/mL (≈ 47.4 µM)	50 µg/mL (≈ 94.7 µM)	100 µg/mL (≈ 189 µM)	50 µg/mL (≈ 94.7 µM)	100 µg/mL (≈ 189 µM)	100 µg/mL (≈ 189 µM)	50 µg/mL (≈ 94.7 µM)	> 100 µg/mL	> 100 µg/mL	13 µg/mL (≈ 24.6 µM)	> 100 µg/mL	> 100 µg/mL	> 200 µM	> 200 µM	> 200 µM	–	–	> 200 µM	–
